Assay results from US10392383B2, “3-(1H-benzo[d]imidazol-2-yl)-1H-pyrazolo[4,3-b]pyridines and therapeutic uses thereof” (Samumed, LLC, priority 2015, dated 2019).

Key:
Format in all cases: cell-based
[1] = tested on: IL-6 (THP-1 cells); test: IL-6 inhibition in LPS-stimulated THP-1 monocytes (HTRF); conditions: Homo sapiens, IL-6 HTRF; for EC50: 500 ng/mL LPS, Table 6; for inhibition at 10 µM: LPS, Table 6, read-out: percent inhibition at 10 μM (given in parentheses for EC50 >10 μM)
Method in brief: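 THP-1 cells in 1% FBS pre-incubated 2 h with compound (10-point 1:3 series from 10 μM, 0.1% DMSO), then stimulated with 500 ng/mL LPS for 22 h at 37 °C. IL-6 measured by HTRF 665/620 ratio, normalized to DMSO; EC50 by four-parameter fit, or % inhibition at 10 μM when EC50 >10 μM.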

[2] = tested on: SW480 colon cancer cells; test: Cell viability assay (CellTiter-Blue) in SW480 cells; conditions: Homo sapiens, 96 h, four days; for EC50: CellTiter-Blue, 10 μM to 0.0045 μM
Method in brief: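 Approximately 2×10^3 SW480 cells per well are seeded with compound (8 points, threefold steps, top 10 μM) and incubated four days at 37 °C. CellTiter-Blue is then added for about 3 h and fluorescence read. Non-linear regression gives EC50; for values beyond 10 μM, percent inhibition at that concentration is listed.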

[3] = tested on: primary human fibroblasts derived from IPF patients (LL29 cells) treated with TGF-β1; test: Inhibition of the fibrotic process: αSMA staining in TGF-β1-treated LL29 fibroblasts; conditions: Fibroblast; for EC50: 96 h, LL29 fibroblasts treated with TGF-β1 (20 ng/mL), 4 days, Table 4
Method in brief: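 IPF-derived LL29 fibroblasts in F12 with 1% FBS dosed with compound (11-point, 10 μM to 1.87 nM, 0.1% DMSO), then 20 ng/mL TGF-β1 after 1 h, and cultured 4 days at 37 °C. αSMA-positive cell fraction imaged after excluding SYTOX-positive cells, normalized to TGF-β1/DMSO wells; EC50 by non-linear regression, % inhibition at 10 μM if EC50 >10 μM.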

EC50 [1] [nM]	EC50 [2] [nM]	SMILES	EC50 [3] [nM]	inhibition at 10 µM [1] [%]	inhibition at 10 µM ([3]; 10 μM, LL29 fibroblasts treated with TGF-β1, Table 4, read-out: percent inhibition at 10 μM (given in parentheses for EC50 >10 μM)) [%]	inhibition at 10 µM ([2]; 10 μM, read-out: percent inhibition at 10 μM (given for EC50 of >10 μM)) [%]
> 10000	8920	CCCC(=O)Nc1cncc(-c2ccc3[nH]nc(-c4nc5c(-c6ccsc6)cccc5[nH]4)c3n2)c1 [Compound 297, N-(5-(3-(4-(Thiophen-3-yl)-1H-benzo[d]imidazol-2-yl)-1H-pyrazolo[4,3-b]pyridin-5-yl)pyridin-3-yl)butyramide]	1300	0	–	–
> 10000	3500	Cc1cn(-c2cccc3[nH]c(-c4n[nH]c5ccc(-c6cncc(NC(=O)C7CCC7)c6)nc45)nc23)cn1 [Compound 217, N-(5-(3-(4-(4-Methyl-1H-imidazol-1-yl)-1H-benzo[d]imidazol-2-yl)-1H-pyrazolo[4,3-b]pyridin-5-yl)pyridin-3-yl)cyclobutanecarboxamide]	> 10000	51.9	0	–
> 10000	8360	CN1CCN(c2cccc3[nH]c(-c4n[nH]c5ccc(-c6cncc(NC(=O)C7CCCC7)c6)nc45)nc23)CC1 [Compound 246, N-(5-(3-(4-(4-Methylpiperazin-1-yl)-1H-benzo[d]imidazol-2-yl)-1H-pyrazolo [4,3-b]pyridin-5-yl)pyridin-3-yl)cyclopentanecarboxamide]	4940	35.7	–	–
> 10000	1220	Cc1cn(-c2cccc3[nH]c(-c4n[nH]c5ccc(-c6cncc(NC(=O)CC(C)C)c6)nc45)nc23)cn1 [Compound 198, 3-Methyl-N-(5-(3-(4-(4-methyl-1H-imidazol-1-yl)-1H-benzo[d]imidazol-2-yl)-1H-pyrazolo[4,3-b]pyridin-5-yl)pyridin-3-yl)butanamide]	1890	30.8	–	–

More lines, now with the values behind:

SMILES	EC50 [1] [nM]	EC50 [2] [nM]	EC50 [3] [nM]	inhibition at 10 µM [1] [%]	inhibition at 10 µM ([3]; 10 μM, LL29 fibroblasts treated with TGF-β1, Table 4, read-out: percent inhibition at 10 μM (given in parentheses for EC50 >10 μM)) [%]	inhibition at 10 µM ([2]; 10 μM, read-out: percent inhibition at 10 μM (given for EC50 of >10 μM)) [%]
Oc1cncc(-c2ccc3[nH]nc(-c4nc5c(-c6cccc(F)c6)cccc5[nH]4)c3n2)c1 [Compound 517, 5-(3-(4-(3-Fluorophenyl)-1H-benzo[d]imidazol-2-yl)-1H-pyrazolo[4,3-b]pyridin-5-yl)pyridin-3-ol]	9700	4540	1540	–	–	–
CN(C)CCNc1cc(F)cc(-c2cccc3[nH]c(-c4n[nH]c5ccc(-c6ccccn6)nc45)nc23)c1 [Compound 476, N^1-(3-Fluoro-5-(2-(5-(pyridin-2-yl)-1H-pyrazolo[4,3-b]pyridin-3-yl)-1H-benzo[d]imidazol-4-yl)phenyl)-N^2,N^2-dimethylethane-1,2diamine]	8750	1440	1080	–	–	–
Fc1cccc(-c2cccc3[nH]c(-c4n[nH]c5ccc(-c6cncc(OC7CCNCC7)c6)nc45)nc23)c1 [Compound 512, 3-(4-(3-Fluorophenyl)-1H-benzo[d]imidazol-2-yl)-5-(5-(piperidin-4-yloxy)pyridin-3-yl)-1H-pyrazolo[4,3-b]pyridine]	1520	2280	1540	–	–	–
Cn1cc(-c2ccc3[nH]nc(-c4nc5c(-c6cccc(F)c6)cccc5[nH]4)c3n2)cn1 [Compound 508, 3-(4-(3-Fluorophenyl)-1H-benzo[d]imidazol-2-yl)-5-(1-methyl-1H-pyrazol-4-yl)-1H-pyrazolo[4,3-b]pyridine]	> 10000	1120	1110	0	–	–
FC1(F)CCN(Cc2cncc(-c3ccc4[nH]nc(-c5nc6c(-c7ccsc7)cccc6[nH]5)c4n3)c2)C1 [Compound 306, 5-(5-((3,3-Difluoropyrrolidin-1-yl)methyl)pyridin-3-yl)-3-(4-(thiophen-3-yl)-1H-benzo[d]imidazol-2-yl)-1H-pyrazolo[4,3-b]pyridine]	4480	4790	1230	–	–	–
Fc1cccc(-c2cccc3[nH]c(-c4n[nH]c5ccc(-c6ccncc6)nc45)nc23)c1 [Compound 18, 3-(4-(3-Fluorophenyl)-1H-benzo[d]imidazol-2-yl)-5-(pyridin-4-yl)-1H-pyrazolo[4,3-b]pyridine]	3620	> 10000	231	–	–	0
Fc1cccc(-c2cccc3[nH]c(-c4n[nH]c5ccc(-c6cncc(OCCN7CCCC7)c6)nc45)nc23)c1 [Compound 514, 3-(4-(3-Fluorophenyl)-1H-benzo[d]imidazol-2-yl)-5-(5-(2-(pyrrolidin-1-yl)ethoxy)pyridin-3-yl)-1H-pyrazolo[4,3-b]pyridine]	727	1120	1060	–	–	–
Fc1cccc(-c2cccc3[nH]c(-c4n[nH]c5ccc(C6CCNCC6)nc45)nc23)c1 [Compound 505, 3-(4-(3-Fluorophenyl)-1H-benzo[d]imidazol-2-yl)-5-(piperidin-4-yl)-1H-pyrazolo[4,3-b]pyridine]	4920	1460	1700	–	–	–
c1ccc(CNCc2cncc(-c3ccc4[nH]nc(-c5nc6c(-c7ccsc7)cccc6[nH]5)c4n3)c2)cc1 [Compound 304, N-Benzyl-1-(5-(3-(4-(thiophen-3-yl)-1H-benzo[d]imidazol-2-yl)-1H-pyrazolo[4,3-b]pyridin-5-yl)pyridin-3-yl)methanamine]	5330	3460	2200	–	–	–
